Assays:
[1] = Enteral absorption in vivo (rats): plasma level of the antibiotic after intraduodenal injection, agar plate bioassay; settings: rat, 20 mg/kg, enteral (duodenum), Dosis = 5 mg/0,5 ml
Experimental: Weibliche Ratten im Gewicht von etwa 250 g wurden über Nacht fasten gelassen und mit Metofan anästhesiert. Die Antibiotika wurden in Lösung mit oder ohne Resorptionsverstärker nach Bauchschnitt in das Duodenum unterhalb des Magenausgangs injiziert. Für Vergleichszwecke wurde die Lösung alternativ intravenös in die Schwanzvene appliziert. Die Antibiotika wurden in Wasser gelöst, so dass die Lösungen (mit oder ohne Verstärker) 20 mg/kg, etwa 5 mg pro Ratte, enthielten.
Die Konzentration des Antibiotikums im Plasma der Ratte wurde nach verschiedenen Zeitintervallen nach intravenöser oder enteraler Verabreichung bestimmt. Blutproben wurden aus der Schwanzvene des Versuchstiers vor der Verabreichung des Antibiotikums und 5, 10, 20, 40, 60, 120, 240 und 360 Minuten danach entnommen, danach zentrifugiert und das Plasma bis zur Analyse eingefroren.
Antibiotika, die nicht an Plasma gebunden waren, wurden mit Wasser verdünnt und gegen in Wasser hergestellte Standards geprüft. Für gebundene Antibiotika wurde der Einfluss der Proteinbindung eliminiert durch Verdünnen aller Standardlösungen und Proben im gesammelten Plasma. Im Fall von Ceftriaxon und Cefazolin wurde der Effekt der Bindung dadurch berücksichtigt, dass Plasmaproben mit Acetonitril mit einem Verdünnungsfaktor 1:12 deproteinisiert und gegen eine Standardkurve in Wasser verdünnt gemessen wurden. Antibiotikaspiegel wurden wie in Tabelle 1 angegeben auf Agarplatten ermittelt. Tabelle 1
Die Platten wurden bei 37°C über Nacht bebrütet und die Hemmzonen auf die nächsten […] abgelesen. Die Berechnungen wurden mittels einer Autoassaymaschine (Giles Scientific, Inc., New York) vorgenommen. Vergleiche J.V. Bennett et al., Applied Microbiology 14, 170-177 (1966).

[2] = Rectal absorption in vivo (monkeys): plasma level of the antibiotic after suppository; settings: for Cmax: both sexes, monkey, plasma, read-out: Cmax Bereich
From the text: Für diesen Versuch wurden männliche und weibliche erwachsene Affen (Papio anubis und Papio hamadryas) im Gewicht vom 12-27 kg verwendet. die über Nacht vor der Verabreichung des Antibiotikums fasten gelassen wurden, dann durch i.m.-Injektionen von Ketamin-Hydrochlorid vor der Verabreichung des Antibiotikums sediert wurden. Aus den nachstehend beschriebenen Formulierungen wurden Suppositorien hergestellt die den Tieren verabreicht wurden. Die Rektalöffnungen wurden dann mit Klebeband verschlossen, um ein Herausdrücken der Suppositorienmasse zu vermeiden.
Zur Messung der Resorption des Antibiotikums in den Blutstrom wurden Blutproben aus der Femoralregion vor der Verabreichung des Antibiotikums und 15, 30, 60, 120, 240, 360 und 480 Minuten danach entnommen. Proben wurden zentrifugiert und wie oben beschrieben vermessen. Die Resultate sind in Tabelle 3 zusammengestellt: Tabelle 3

[3] = Oral absorption in vivo (monkeys): plasma concentration of Ceftriaxon after enteric-coated hard gelatin capsules by gavage; parameters: species or system Papio anubis und Papio hamadryas; settings: Kontrollwert: 300 mg Ceftriaxon-Na in the same capsule without absorption enhancer
From the text: Erwachsene Affen (Papio anubis und Papio hamadryas) im Gewicht von 12-30 kg wurden über Nacht fasten gelassen, dann durch i.m.-Injektion von Ketaminhydrochlorid vor der Verabreichung des Antibiotikums sediert. Jeder Affe erhielt vier Hartgelatinekapseln durch Schlundsonde mit der folgenden Zusammensetzung:
Die Kapseln waren mit einem Ueberzug von Polyvinylacetatphthalat (etwa 8% des Kapselgewichtes) versehen.
Die Plasmakonzentration von Ceftriaxon wurde vor der Verabreichung und 10, 20, 40, 60, 120, 180 und 240 Minuten danach bestimmt.

[4] = 500 mg, rectal suppository, Mit Resorptionsverstärker, Formulierung C (500 mg antibiotic, Labrasol 250 mg, Caprylsäure 200 mg)
[5] = rectal suppository, Mit Resorptionsverstärker, Formulierung D (500 mg antibiotic, Labrasol 250 mg, Caprylsäure 100 mg, Natriumcaprylat 100 mg)
[6] = rectal, Kontrolle ohne Resorptionsverstärker
[7] = rectal suppository, Mit Resorptionsverstärker, Formulierung C (500 mg antibiotic, Labrasol 250 mg, Caprylsäure 200 mg)

Structure (SMILES) | Cmax [2, 4] [ng/mL] | Cmax [2, 5] [ng/mL] | Cmax [2, 6] [ng/mL] | % Bioverfügbarkeit [2, 7] [%] | % Bioverfügbarkeit [2, 5] [%] | % Bioverfügbarkeit [2, 6] [%] | other results
CC1(C)S[C@@H]2[C@H](NC(=O)Cc3ccccc3)C(=O)N2[C@H]1C(=O)O [Penicillin G] | – | – | – | – | – | – | Cmax ([1]; in vivo, Labrasol + Caprylsäure + Natriumcaprylat, weight ratio 4:1:1): 2900 ± 1600 ng/mL; Cmax ([1]; in vivo, Labrasol + Caprylsäure, weight ratio 2:1): 7200 ± 700 ng/mL
CN[C@H](CC(C)C)C(=O)N[C@H]1C(=O)N[C@@H](CC(N)=O)C(=O)N[C@H]2C(=O)N[C@H]3C(=O)N[C@H](C(=O)N[C@H](C(=O)O)c4cc(O)cc(O)c4-c4cc3ccc4O)[C@H](O)c3ccc(c(Cl)c3)Oc3cc2cc(c3O[C@@H]2O[C@H](CO)[C@@H](O)[C@H](O)[C@H]2O[C@H]2C[C@](C)(N)[C@H](O)[C@H](C)O2)Oc2ccc(cc2Cl)[C@H]1O [Vancomycin] | – | – | – | – | – | – | Cmax ([1]; female, in vivo, Labrasol + Caprylsäure + Natriumcaprylat, weight ratio 4:1:1): 5300 ± 2100 ng/mL; Cmax ([1]; female, in vivo, Labrasol + Caprylsäure, weight ratio 2:1): 8000 ± 2300 ng/mL
CO[C@@]1(NC(=O)C2SC(=C(C(N)=O)C(=O)O)S2)C(=O)N2C(C(=O)O)=C(CSc3nnnn3C)CS[C@@H]21 (some centres unmarked) [Cefotetan] | 4300 to 21100 | 2500 to 61500 | 2400 to 10100 | 11.4 ± 7.4 | 24.1 ± 12.8 | 4.9 ± 3.1 | Cmax Bereich ([2]; rectal, Kontrolle ohne Resorptionsverstärker, listed as Cefotetran): 3400 to 10100 ng/mL
CO/N=C(\C(=O)N[C@@H]1C(=O)N2C(C(=O)O)=C(CSc3nc(=O)c(=O)[nH]n3C)CS[C@H]12)c1csc(N)n1 [Ceftriaxon-Na, Ceftriaxon-Natrium] | – | – | – | – | – | – | Bioverfügbarkeit [3]: 0%
CO/N=C(\C(=O)N[C@@H]1C(=O)N2C(C(=O)O)=C(CSc3nc(=O)c(=O)[nH]n3C)CS[C@H]12)c1csc(N)n1 [Ceftriaxon] | 21600 to 46600 | 16300 to 38300 | 300 to 9000 | 17.3 ± 4.8 | 17.1 ± 5.0 | 4.3 ± 2.8 | Cmax ([1]; female, plasma, other: intraduodenal injection (enteral), Labrasol + Caprylsäure + Natriumcaprylat, weight ratio 4:1:1): 52200 ± 22500 ng/mL; Cmax ([1]; female, plasma, other: intraduodenal injection (enteral), Labrasol + Caprylsäure, weight ratio 2:1): 57000 ± 10200 ng/mL
